Values of other authors, collected in patent US20110044993A1, “METHOD FOR THE PREVENTION AND TREATMENT OF CANCER BY INHIBITION OF GPVI” (priority 2008, published 2011).

Target: T1, GPVI (Homo sapiens, UniProt Q9HCN6)
T1 sequence (Q9HCN6 21-339): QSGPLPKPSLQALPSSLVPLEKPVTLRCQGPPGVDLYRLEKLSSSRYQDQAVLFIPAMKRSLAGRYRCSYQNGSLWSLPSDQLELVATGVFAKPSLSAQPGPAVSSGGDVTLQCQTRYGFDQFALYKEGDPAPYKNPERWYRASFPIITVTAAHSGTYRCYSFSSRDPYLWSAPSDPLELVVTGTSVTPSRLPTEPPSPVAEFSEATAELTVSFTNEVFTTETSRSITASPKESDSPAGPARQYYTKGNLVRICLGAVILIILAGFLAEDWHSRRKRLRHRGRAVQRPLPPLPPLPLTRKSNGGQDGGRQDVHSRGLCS
T1 sequence (P30273 19-86 partner): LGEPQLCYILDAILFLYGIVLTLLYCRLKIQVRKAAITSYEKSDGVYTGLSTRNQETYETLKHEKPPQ
Conditions: cited from earlier work

Compound: CCCCc1nc(Cl)c(C=O)n1Cc1ccc(-c2ccccc2-c2nn[nH]n2)cc1 [EXP3179]
- Inhibition of GPVI: inhibits GPVI
